Results on 4 compounds are retold here after PubChem BioAssay AID1259407 (Chemical Carcinogenesis Research Information System (CCRIS), 2018).

The data set concerns CCRIS mutagenicity, Ames/micronucleus/aberration tests. The data set is described as follows: CCRIS mutagenicity studies.
[1] abbreviates: Test System: AMES SALMONELLA TYPHIMURIUM, Strain/Indicator: TA100, Metabolic Activation: NONE, Method: STANDARD PLATE.
Setting [2] is: Test System: AMES SALMONELLA TYPHIMURIUM, Strain/Indicator: TA100, Metabolic Activation: RAT, LIVER, S-9, AROCLOR 1254, Method: STANDARD PLATE.
The mark [3] stands for this setting: Test System: AMES SALMONELLA TYPHIMURIUM, Strain/Indicator: TA100, Metabolic Activation: NONE, Method: PREINCUBATION

Activity calls are given as the source filed them. How the calls were made is not given here.

Take `O=C(C(=O)c1ccccc1)c1ccccc1`: the mutagenic call runs as follows: (Test System: AMES SALMONELLA TYPHIMURIUM, Strain/Indicator: TA98, Metabolic Activation: HAMSTER, LIVER, S-9, AROCLOR 1254, Method: STANDARD PLATE) “inactive; negative”; (Test System: AMES SALMONELLA TYPHIMURIUM, Strain/Indicator: TA98, Metabolic Activation: NONE, Method: STANDARD PLATE) “inactive; negative”; (Test System: AMES SALMONELLA TYPHIMURIUM, Strain/Indicator: TA98, Metabolic Activation: RAT, LIVER, S-9, AROCLOR 1254, Method: STANDARD PLATE) “inactive; negative”; (Test System: AMES SALMONELLA TYPHIMURIUM, Strain/Indicator: TA100, Metabolic Activation: HAMSTER, LIVER, S-9, AROCLOR 1254, Method: STANDARD PLATE) “inactive; negative”; under setting [1], “inactive; negative”; under setting [2], “inactive; negative”. Moreover, the mutagenic call is “inactive; negative” (Test System: AMES SALMONELLA TYPHIMURIUM, Strain/Indicator: TA1535, Metabolic Activation: HAMSTER, LIVER, S-9, AROCLOR 1254, Method: STANDARD PLATE); “inactive; negative” (Test System: AMES SALMONELLA TYPHIMURIUM, Strain/Indicator: TA1535, Metabolic Activation: NONE, Method: STANDARD PLATE); “inactive; negative” (Test System: AMES SALMONELLA TYPHIMURIUM, Strain/Indicator: TA1535, Metabolic Activation: RAT, LIVER, S-9, AROCLOR 1254, Method: STANDARD PLATE); “inactive; negative” (Test System: AMES SALMONELLA TYPHIMURIUM, Strain/Indicator: TA1537, Metabolic Activation: HAMSTER, LIVER, S-9, AROCLOR 1254, Method: STANDARD PLATE); “inactive; negative” (Test System: AMES SALMONELLA TYPHIMURIUM, Strain/Indicator: TA1537, Metabolic Activation: NONE, Method: STANDARD PLATE); “inactive; negative” (Test System: AMES SALMONELLA TYPHIMURIUM, Strain/Indicator: TA1537, Metabolic Activation: RAT, LIVER, S-9, AROCLOR 1254, Method: STANDARD PLATE). The mutagenic call was “inactive; negative” (Test System: AMES SALMONELLA TYPHIMURIUM, Strain/Indicator: TA1538, Metabolic Activation: HAMSTER, LIVER, S-9, AROCLOR 1254, Method: STANDARD PLATE); “inactive; negative” (Test System: AMES SALMONELLA TYPHIMURIUM, Strain/Indicator: TA1538, Metabolic Activation: NONE, Method: STANDARD PLATE); “inactive; negative” (Test System: AMES SALMONELLA TYPHIMURIUM, Strain/Indicator: TA1538, Metabolic Activation: RAT, LIVER, S-9, AROCLOR 1254, Method: STANDARD PLATE); “inactive; inconclusive (previous evaluation negative)” (Test System: Mouse lymphoma, Strain/Indicator: L5178Y (tk+/tk-), Metabolic Activation: None, Method: Suspension/plate); “inactive; negative” (Test System: Mouse lymphoma, Strain/Indicator: L5178Y (tk+/tk-), Metabolic Activation: Rat, Liver, S-9, Aroclor 1254, Method: Suspension/plate).

On to `COc1cc(-c2cc(=O)c3c(O)cc(O)cc3o2)ccc1O`, for which the mutagenic call by setting is: (Test System: Ames Salmonella typhimurium, Strain/Indicator: TA98, Metabolic Activation: None, Method: Standard plate) “inactive; negative”; (Test System: Ames Salmonella typhimurium, Strain/Indicator: TA98, Metabolic Activation: Rat, Liver, S-9, Aroclor 1254, Method: Standard plate) “inactive; negative”.

Take `CNC(=O)NC`: the mutagenic call is, setting by setting: (Test System: AMES SALMONELLA TYPHIMURIUM, Strain/Indicator: TA98, Metabolic Activation: NONE, Method: PREINCUBATION) “inactive; negative”; (Test System: AMES SALMONELLA TYPHIMURIUM, Strain/Indicator: TA98, Metabolic Activation: RAT, LIVER, S-9, AROCLOR 1254 (5, 15 OR 30%), Method: PREINCUBATION) “inactive; negative”; under setting [3], “inactive; negative”; (Test System: AMES SALMONELLA TYPHIMURIUM, Strain/Indicator: TA100, Metabolic Activation: RAT, LIVER, S-9, AROCLOR 1254 (5, 15 OR 30%), Method: PREINCUBATION) “inactive; negative”; (Test System: AMES SALMONELLA TYPHIMURIUM, Strain/Indicator: TA104, Metabolic Activation: NONE, Method: PREINCUBATION) “inactive; negative”; (Test System: AMES SALMONELLA TYPHIMURIUM, Strain/Indicator: TA104, Metabolic Activation: RAT, LIVER, S-9, AROCLOR 1254 (5, 15 OR 30%), Method: PREINCUBATION) “inactive; negative”. Besides, the mutagenic call is “inactive; negative” (Test System: MOUSE LYMPHOMA, Strain/Indicator: L5178Y (TK+/TK-), Metabolic Activation: NONE, Method: SUSPENSION/PLATE) and “inactive; negative” (Test System: MOUSE LYMPHOMA, Strain/Indicator: L5178Y (TK+/TK-), Metabolic Activation: RAT, LIVER, S-9, AROCLOR 1254, Method: SUSPENSION/PLATE).

Consider `CBr`, for which the mutagenic call is “inactive; negative” (Test System: AMES SALMONELLA TYPHIMURIUM, Strain/Indicator: TA98, Metabolic Activation: HAMSTER, LIVER, S-9, AROCLOR 1254 (30%), Method: DESICCATOR); “inactive; negative” (Test System: AMES SALMONELLA TYPHIMURIUM, Strain/Indicator: TA98, Metabolic Activation: NONE, Method: DESICCATOR); “inactive; negative” (Test System: AMES SALMONELLA TYPHIMURIUM, Strain/Indicator: TA98, Metabolic Activation: NONE, Method: GAS EXPOSURE); “inactive; negative” (Test System: AMES SALMONELLA TYPHIMURIUM, Strain/Indicator: TA98, Metabolic Activation: RAT, LIVER, S-9, AROCLOR 1254 (30%), Method: DESICCATOR); “inactive; negative” (Test System: AMES SALMONELLA TYPHIMURIUM, Strain/Indicator: TA98, Metabolic Activation: RAT, LIVER, S-9, SODIUM PHENOBARBITAL AND 5,6-BENZOFLAVONE, Method: GAS EXPOSURE); “active; positive” (Test System: AMES SALMONELLA TYPHIMURIUM, Strain/Indicator: TA100, Metabolic Activation: HAMSTER, LIVER, S-9, AROCLOR 1254 (30%), Method: DESICCATOR). The mutagenic call by setting is: (Test System: AMES SALMONELLA TYPHIMURIUM, Strain/Indicator: TA100, Metabolic Activation: NONE, Method: DESICCATOR) “active; positive”; (Test System: AMES SALMONELLA TYPHIMURIUM, Strain/Indicator: TA100, Metabolic Activation: NONE, Method: GAS EXPOSURE) “active; positive”; under setting [3], “active; positive”; under setting [1], “active; positive”; (Test System: AMES SALMONELLA TYPHIMURIUM, Strain/Indicator: TA100, Metabolic Activation: RAT, LIVER, S-9, AROCLOR 1254 (30%), Method: DESICCATOR) “active; positive”; (Test System: AMES SALMONELLA TYPHIMURIUM, Strain/Indicator: TA100, Metabolic Activation: RAT, LIVER, S-9, AROCLOR 1254, Method: PREINCUBATION) “active; positive”. The mutagenic call by setting is: under setting [2], “active; positive”; (Test System: AMES SALMONELLA TYPHIMURIUM, Strain/Indicator: TA100, Metabolic Activation: RAT, LIVER, S-9, SODIUM PHENOBARBITAL AND 5,6-BENZOFLAVONE, Method: GAS EXPOSURE) “active; positive”; (Test System: AMES SALMONELLA TYPHIMURIUM, Strain/Indicator: TA1535, Metabolic Activation: NONE, Method: GAS EXPOSURE) “active; positive”; (Test System: AMES SALMONELLA TYPHIMURIUM, Strain/Indicator: TA1535, Metabolic Activation: RAT, LIVER, S-9, SODIUM PHENOBARBITAL AND 5,6-BENZOFLAVONE, Method: GAS EXPOSURE) “active; positive”; (Test System: AMES SALMONELLA TYPHIMURIUM, Strain/Indicator: TA1537, Metabolic Activation: NONE, Method: GAS EXPOSURE) “inactive; negative”; (Test System: AMES SALMONELLA TYPHIMURIUM, Strain/Indicator: TA1537, Metabolic Activation: RAT, LIVER, S-9, SODIUM PHENOBARBITAL AND 5,6-BENZOFLAVONE, Method: GAS EXPOSURE) “inactive; negative”. Also, the mutagenic call was “active; positive” (Test System: E. COLI, Strain/Indicator: WP2UVRA, Metabolic Activation: NONE, Method: GAS EXPOSURE) and “active; positive” (Test System: E. COLI, Strain/Indicator: WP2UVRA, Metabolic Activation: RAT, LIVER, S-9, SODIUM PHENOBARBITAL AND 5,6-BENZOFLAVONE, Method: GAS EXPOSURE).
